Test results as given in article PMC11596612, “Nine New Glycosylated Compounds from the Leaves of the Medicinal Plant Malus hupehensis” (Molecules, 2024).

What follows are compounds tested on NO production in LPS-activated RAW 264.7 macrophage cells (assay: Anti-NO activity assay: inhibition of NO production in LPS-activated RAW 264.7 macrophage cells). Conditions: LPS-activated RAW 264.7 cells; means of three independent replicates; ammonium pyrrolidinedithiocarbamate positive control; read-out: NO production inhibitory activity IC50 (RAW 264.7).
Assay type: cell-based
Protocol: Using a previously published method, the anti-inflammatory activity of all compounds (1–15) was assessed based on the suppression of NO generation in RAW264.7 cells.

Point of comparison: S=C(S)N1CCCC1 [Ammonium pyrrolidinedithiocarbamate, reference compound], IC50 20 ± 0.12 µM. Against it:
- O=C(OC[C@H]1O[C@@H](Oc2cc(O)cc(O)c2C(=O)CCc2ccc(O)cc2)[C@H](O)[C@@H](O)[C@@H]1O)c1ccccc1 [Compound 10, phloridzin 6″-O-benzoate] — higher, > 40 µM
- O=C(C=Cc1ccccc1)OCC1OC(Oc2cc(O)cc(O)c2C(=O)CCc2ccc(O)cc2)C(O)C(O)C1O (stereo not shown) [Compound 11, phloridzin 6″-O-cinnamate] — higher, > 40 µM
- methylenebisphloridzin [Compound 13] — higher, > 40 µM

Same assay, conditions: Mus musculus, RAW264.7; LPS-activated RAW 264.7 cells; means of three independent replicates; ammonium pyrrolidinedithiocarbamate positive control; read-out: NO production inhibitory activity IC50 (RAW 264.7)

Point of comparison: COc1cc(/C=C/C(=O)OC[C@H]2O[C@@H](Oc3cc(O)cc(O)c3C(=O)CCc3ccc(O)cc3)[C@H](O)[C@@H](O)[C@@H]2O)ccc1O [Compound 4, malahupinoside F], IC50 29.6 µM. Against it:
- O=C(O[C@H]1[C@H](Oc2cc(O)cc(O)c2C(=O)CCc2ccc(O)cc2)O[C@H](CO)[C@@H](O)[C@@H]1O)c1ccccc1 [Compound 1, malahupinoside C] — higher, > 40 µM
- O=C(/C=C/c1ccccc1)O[C@H]1[C@H](Oc2cc(O)cc(O)c2C(=O)CCc2ccc(O)cc2)O[C@H](CO)[C@@H](O)[C@@H]1O [Compound 2, malahupinoside D] — higher, > 40 µM
- O=C(/C=C/c1ccc(O)cc1)OC[C@H]1O[C@@H](Oc2cc(O)cc(O)c2C(=O)CCc2ccc(O)cc2)[C@H](O)[C@@H](O)[C@@H]1O [Compound 3, malahupinoside E] — higher, > 40 µM
- COc1cccc2c1oc1c(OC)cc(O)cc12 [Compound 5] — higher, > 40 µM
- COc1cccc2c1oc1c(OC)cc(O)c(OC3OC(CO)C(O)C(O)C3O)c12 (stereo not shown) [Compound 6, fortuneanoside N] — higher, > 40 µM
- COc1cc(O)c(OC2OC(CO)C(O)C(O)C2O)c2c1oc1ccccc12 (stereo not shown) [Compound 7, fortuneanoside O] — higher, > 40 µM
- COc1cc(OC)cc(-c2ccccc2OC2OC(CO)C(O)C(O)C2O)c1 (stereo not shown) [Compound 8, fortuneanoside P] — higher, > 40 µM
- COc1cc(OC)c(OC2OC(CO)C(O)C(O)C2O)c(-c2ccccc2O)c1 (stereo not shown) [Compound 9, fortuneanoside Q] — higher, > 40 µM
- O=C(/C=C/c1ccc(O)cc1)Oc1ccc(CCC(=O)c2c(O)cc(O)cc2O[C@@H]2O[C@H](CO)[C@@H](O)[C@H](O)[C@H]2O)cc1 [Compound 12, 4-[3-[2-(β-D-Glucopyranosyloxy)-4,6-dihydroxyphenyl]-3-oxopropyl]phenyl(2E)-3-(4-hydroxyphenyl)-2-propenoate] — higher, > 40 µM
- COc1cc(O)cc2c1oc1ccccc12 [Compound 14, 2-Hydroxy-4-methoxydibenzofuran] — higher, > 40 µM
- COc1cc(OC)cc(-c2ccc(O)c(O[C@@H]3O[C@H](CO)[C@@H](O)[C@H](O)[C@H]3O)c2)c1 [Compound 15, 3′,5′-Dimethoxy-(1,1′-biphenyl)-3,4-diol 3-O-β-D-glucopyranoside] — higher, > 40 µM
